Data on nine compounds can be found in patent publication US8106086B2, “Indoledione derivative” (MSD K.K., priority 2007, dated 2012).

For orientation: IC50 means the concentration that inhibits the measured activity by half.

A short description of assay [1]: activity of the optically resolved components of Production Example 1 (test not stated). The settings on record: fractions from optical resolution on CHIRALPAK AD-H.
Assay [2] deals with T1, intracellular LCE in H2.35 cells originating in mouse liver (Mus musculus, UniProt Q920L5).
T1 construct: endogenous in cells; host or cells: H2.35 mouse liver cells
T1 sequence (Q920L5 1-267): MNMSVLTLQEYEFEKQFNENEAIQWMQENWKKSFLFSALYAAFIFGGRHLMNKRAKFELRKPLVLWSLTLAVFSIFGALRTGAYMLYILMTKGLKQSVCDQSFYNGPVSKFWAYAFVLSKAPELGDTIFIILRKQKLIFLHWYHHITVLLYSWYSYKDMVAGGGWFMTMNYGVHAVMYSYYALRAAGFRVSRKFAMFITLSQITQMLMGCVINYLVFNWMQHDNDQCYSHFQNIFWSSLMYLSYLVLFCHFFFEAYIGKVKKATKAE
As to the kind of experiment: Intracellular LCE activity inhibition test. Format: cell-based. The settings on record: [14C]-palmitoyl CoA, C18/C16 ratio by radio HPLC. As to the method:
Cultured H2.35 cells originating in mouse liver were maintained in DMEM (GIBCO) containing 4% calf serum and 200 nM dexamethasone and cultured at 33° C. in the presence of 5% CO2. About 2.5×10^5 H2.35 cells were pipetted into a 24-well cell culture plate (Corning, 24-Well Cell Culture Cluster) and cultured overnight at 33° C. in the presence of 5% CO2. […] After culturing for 1 hour at 33° C. in the presence of 5% CO2, [^14C]-palmitoyl CoA (2.13 GBq/mmol, manufactured by Perkin Elmer) was added to each well and culture was conducted for additional 4 hours at 33° C. in the presence of 5% CO2. Next, each well was washed with ice-cooled phosphate-buffered physiological saline and 250 μl of 2M sodium hydroxide was added to cease the reaction. Then, the reaction solution in each well was transferred into a glass test tube and incubated at 70° C. for 1 hour. After adding 100 μl of a 5N hydrogen chloride solution, fatty acids were extracted with petroleum ether. Then [^14C]-labeled fatty acids were quantified by radio HPLC and the ratio of the amount of fatty acids having carbon chains consisting of 18 carbon atoms to the amount of those having carbon chains consisting of 16 carbon atoms (C18/C16 ratio) was calculated. The intracellular LCE inhibition activity of the test compound was calculated, based on the C18/C16 ratio of the well containing test compound-free DMSO as a control.

The target in the next assay is T2, human LCE (Homo sapiens, UniProt Q9H5J4).
T2 sequence (Q9H5J4 1-265): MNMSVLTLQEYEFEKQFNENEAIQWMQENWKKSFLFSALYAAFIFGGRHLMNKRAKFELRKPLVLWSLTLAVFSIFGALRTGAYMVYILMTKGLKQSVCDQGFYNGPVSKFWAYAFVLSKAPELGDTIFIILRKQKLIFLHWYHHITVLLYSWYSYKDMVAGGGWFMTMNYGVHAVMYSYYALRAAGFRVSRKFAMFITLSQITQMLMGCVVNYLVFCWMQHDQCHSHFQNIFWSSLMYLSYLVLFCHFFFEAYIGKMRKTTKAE
As to the kind of experiment: LCE enzyme activity inhibition test. Type of assay: biochemical. The settings on record: palmitoyl CoA and [14C]-malonyl CoA, 37° C. for 90 minutes. As for the experimental part: The LCE enzyme activity inhibition test was carried out according to a modification of the method of Moon et al., J. Biol. Chem., Vol. 276, pp. 45358 to 45366 (2001). Namely, 1.0 μl of the diluted test compound was added to each well of a 96-well assay plate (Corning, 96-Well Assay Block). Next, 50 μl of a phosphate buffer solution (100 mM potassium phosphate buffer solution, pH 6.5) and 25 μl of a substrate solution (in 100 mM potassium phosphate buffer solution (pH 6.5), 4.0 μM rotenone, 80 μM fatty acid-free bovine serum albumin, 160 μM palmitoyl CoA, 80 μM malonyl CoA, 3.5 μM [^14C]-malonyl CoA (1.92 GBq/mmol, manufactured by Amersham) were added to each well. Further, 25 μl of an enzyme solution (in 100 mM potassium phosphate buffer solution (pH 6.5), 100 μg/ml human LCE) was added thereto. Then, the upper side of the plate was sealed up, and the plate was incubated with gently stirring at 37° C. for 90 minutes. Subsequently, 100 μl of 5 N HCl was added to each well. The reaction was ceased by stirring the assay plate at room temperature for 5 minutes and acyl CoA was hydrolyzed. Subsequently, the enzyme reaction solution in each well was adsorbed by each well of a 96-well GF/C filter plate (Perkin Elmer Unifilter 96GF/C) through which water had been preliminarily passed. After washing each well with water to remove unabsorbed malonyl CoA, the GF/C filter plate was dried at 50° C. for 60 minutes. Next, 30 μl of a scintilator (Perkin Elmer, Microschinti 0) was added to each well and the upper side of the plate was sealed up. The radioactivity of the thus fixed [^14C] was measured with a microplate scintillation counter (Perkin Elmer, Topcount) and the obtained value was referred to as the enzyme activity. The human LCE enzyme inhibition activity of the test compound was calculated, based on the radioactivity of the well containing test compound-free DMSO as a control.

In the case of `Cc1[nH]n(-c2ccccc2)c(=O)c1C1(C(F)(F)F)C(=O)N(c2ccccc2)C2=C1C(=O)CC(C)(C)C2` (centres unmarked) [3-(2,5-dihydro-3-methyl-5-oxo-1-phenyl-1H-pyrazol-4-yl)-3,5,6,7-tetrahydro-6,6-dimethyl-1-phenyl-3-trifluoromethyl-1H-indole-2,4-dione], the “identified as being active” value in assay [1] is reported as “active”.
On to `COc1ccc(-n2[nH]c(C)c(C3(C(F)(F)F)C(=O)N(c4ccccc4)C4=C3C(=O)CC(C)(C)C4)c2=O)cc1` (centres unmarked) [Production Example 26, 3-[2,5-dihydro-1-(4-methoxyphenyl)-3-methyl-5-oxo-1H-pyrazol-4-yl]-3,5,6,7-tetrahydro-6,6-dimethyl-1-phenyl-3-trifluoromethyl-1H-indole-2,4-dione], for which the IC50 in assay [2] was 3.1 nM.
Regarding `Cc1[nH]n(-c2ccc(C(F)(F)F)cc2)c(=O)c1C1(C(F)(F)F)C(=O)N(c2ccccc2)C2=C1C(=O)CC(C)(C)C2` (centres unmarked) [Production Example 29, 3-[2,5-dihydro-3-methyl-5-oxo-1-(4-trifluoromethylphenyl)-1H-pyrazol-4-yl]-3,5,6,7-tetrahydro-6,6-dimethyl-1-phenyl-3-trifluoromethyl-1H-indole-2,4-dione], the IC50 in assay [2] was determined as 1.2 nM; against human LCE, 23 nM.
For `Cc1[nH]n(-c2ccc(C#N)cc2)c(=O)c1C1(C(F)(F)F)C(=O)N(c2ccccc2)C2=C1C(=O)CC(C)(C)C2` (centres unmarked) [Production Example 31, 3-[1-(4-cyanophenyl)-2,5-dihydro-3-methyl-5-oxo-1H-pyrazol-4-yl]-3,5,6,7-tetrahydro-6,6-dimethyl-1-phenyl-3-trifluoromethyl-1H-indole-2,4-dione], the IC50 in assay [2] came out at 5.4 nM.
`Cc1[nH]n(-c2ccc(C(C)(C)C)cc2)c(=O)c1C1(C(F)(F)F)C(=O)N(c2ccccc2)C2=C1C(=O)CC(C)(C)C2` (centres unmarked) [Production Example 35, 3-[1-(4-tert-butylphenyl)-2,5-dihydro-3-methyl-5-oxo-1H-pyrazol-4-yl]-3,5,6,7-tetrahydro-6,6-dimethyl-1-phenyl-3-trifluoromethyl-1H-indole-2,4-dione]: the results for the IC50 (in assay [2]; against human LCE) were 4.2 nM and 15 nM, respectively.
Regarding `Cc1[nH]n(-c2ccc(OC(F)(F)F)cc2)c(=O)c1C1(C(F)(F)F)C(=O)N(c2ccccc2)C2=C1C(=O)CC(C)(C)C2` (centres unmarked) [Production Example 36, 3-[2,5-dihydro-3-methyl-5-oxo-1-(4-trifluoromethoxyphenyl)-1H-pyrazol-4-yl]-3,5,6,7-tetrahydro-6,6-dimethyl-1-phenyl-3-trifluoromethyl-1H-indole-2,4-dione], the IC50 in assay [2] came to 0.6 nM.
As to `Cc1[nH]n(-c2ccc(OC(C)C)cc2)c(=O)c1C1(C(F)(F)F)C(=O)N(c2ccccc2)C2=C1C(=O)CC(C)(C)C2` (centres unmarked) [Production Example 40, 3-[2,5-dihydro-1-(4-isopropoxyphenyl)-3-methyl-5-oxo-1H-pyrazol-4-yl]-3,5,6,7-tetrahydro-6,6-dimethyl-1-phenyl-3-trifluoromethyl-1H-indole-2,4-dione], the results for the IC50 (in assay [2]; at human LCE) were 38 nM and 30 nM, respectively.
Turning to `Cc1[nH]n(-c2ccc(-c3ccccc3)cc2)c(=O)c1C1(C(F)(F)F)C(=O)N(c2ccccc2)C2=C1C(=O)CC(C)(C)C2` (centres unmarked) [Production Example 42, 3-[2,5-dihydro-3-methyl-5-oxo-1-(biphenyl-4-yl)-1H-pyrazol-4-yl]-3,5,6,7-tetrahydro-6,6-dimethyl-1-phenyl-3-trifluoromethyl-1H-indole-2,4-dione], the IC50 worked out at 25 nM in assay [2] and 22 nM against human LCE.
On the same counts, the results for `Cc1[nH]n(-c2ccc(S(C)(=O)=O)cc2)c(=O)c1C1(C(F)(F)F)C(=O)N(c2ccccc2)C2=C1C(=O)CC(C)(C)C2` (centres unmarked) [Production Example 44, 3-[2,5-dihydro-3-methyl-(4-methylsulfonylphenyl)-5-oxo-1H-pyrazol-4-yl]-3,5,6,7-tetrahydro-6,6-dimethyl-1-phenyl-3-trifluoromethyl-1H-indole-2,4-dione] are 7 nM and 8.9 nM.
